Test results: patent US20080108645A1, “Dihydrotetrabenazines And Pharmaceutical Compositions Containing Them” (CAMBRIDGE LABORATORIES, (IRELAND), LTD., priority 2004, published 2008)

How the values were obtained:
[1] = target: T1, VMAT1 (Rattus norvegicus, UniProt Q01818); test: VMAT1 functional assay: [3H] dopamine uptake, rat adrenal chromaffin cell vesicles in presence of 10 μM tetrabenazine; assay type: biochemical; conditions: for IC50: in the presence of 10 μM Tetrabenazine, read-out: IC50, inhibition of [3H] dopamine uptake
T1 construct: The vesicular fraction was isolated in an identical fashion to that described for the brain preparation; from tissue; host or cells: SD rat adrenal medulla chromaffin cells, vesicular fraction
T1 sequence (Q01818 1-521): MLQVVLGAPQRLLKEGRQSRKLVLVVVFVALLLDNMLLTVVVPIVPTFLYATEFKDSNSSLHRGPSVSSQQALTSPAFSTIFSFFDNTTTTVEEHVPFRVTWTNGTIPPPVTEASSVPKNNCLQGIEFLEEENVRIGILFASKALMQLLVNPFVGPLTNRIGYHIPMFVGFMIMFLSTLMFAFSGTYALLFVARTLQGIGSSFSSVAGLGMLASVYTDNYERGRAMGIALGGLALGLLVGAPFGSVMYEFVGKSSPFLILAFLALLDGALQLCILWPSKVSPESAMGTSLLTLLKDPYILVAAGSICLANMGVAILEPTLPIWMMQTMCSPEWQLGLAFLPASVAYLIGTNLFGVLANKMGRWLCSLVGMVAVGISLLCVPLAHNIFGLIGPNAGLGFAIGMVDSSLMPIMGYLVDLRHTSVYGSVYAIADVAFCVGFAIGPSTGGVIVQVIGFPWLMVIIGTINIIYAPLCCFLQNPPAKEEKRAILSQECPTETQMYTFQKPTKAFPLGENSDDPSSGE
Protocol: Thus, adrenal glands were dissected in ice cold PBS, the capsule and cortex of the glands removed and the remaining medullae were minced. After multiple washes with PBS, the tissue was incubated with Ca2+-free collagenase IA solution (250 U/ml) for 30 minutes at 30° C. with gentle stirring. The digested tissue was rinsed three times and the dissociated cells were centrifuged at 3000 rpm to form a pellet, which was resuspended in PBS. The vesicular fraction was isolated in an identical fashion to that described for the brain preparation.
100 μl (approx. 2.5 μg protein) of synaptic vesicles were preincubated with increasing concentrations of test compound (prepared as previously described for binding assay) for 30 minutes (concentration range 10^−9 M-10^−4 M). The assay was performed for 3 minutes at 30° C. in the assay buffer (25 mM HEPES, 100 mM potassium tartrate, 1.7 mM ascorbic acid, 0.05 mM EGTA, 0.1 mM EDTA, 2 mM ATP-Mg^2+, pH 7.5), in the presence of [^3H] dopamine (30 nM final concentration). [^3H] dopamine uptake was measured in the presence of 10 μM tetrabenazine (selectively blocks VMAT2 at this concentration). Non-specific uptake was determined by measuring vesicular [^3H] dopamine uptake at 4° C. The reaction was then terminated by addition of ice-cold buffer assay buffer pH 7.5, containing 2 mM MgSO4 instead of 2 mM ATP-Mg^2+, and rapid filtration achieved through Whatman filters soaked in 0.5% polyethyleneimine. The filters were washed three times with cold buffer using a Brandel Harvester and the radioactivity trapped on the filters was counted using a liquid scintillation counter.

[2] = test system: Imidazoline I2 (Central) Receptor; test: Imidazoline I2 (central) receptor radioligand binding; parameters: species or system Wistar rat; conditions: 10 μM; 2 nM [3H] Idazoxan
Protocol: (§1) (a) Adrenergic α2A Receptor: • Reference: S. Uhlen et al. J. Pharmacol. Exp. Ther., 271:1558-1565 (1994) • Source: Human recombinant insect Sf9 cells • Ligand: 1 nM [^3H] […] J. Pharmacol., 99:803-809, (1990) • Source: Wistar rat cerebral cortex • Ligand: 2 nM [3H]

[3] = in vitro; conditions: human, Caco-2, pH 7.4
Source text: The assay relies on the ability of Caco-2 cells to differentiate into enterocytes when cultured on a microporous filter for a period of approximately 21 days. During the culture period, the Caco-2 cells undergo spontaneous morphological and biochemical changes, which produce a polarized monolayer with a well-defined brush border on the apical surface, as well as tight cellular junctions. Therefore, these cells may be used as an in vitro model for the analysis of drug permeability.
Absorption across the Caco-2 monolayer can be measured in two directions: apical-to-basolateral or basolateral-to-apical, by adding the compound to the apical or the basolateral chamber, respectively. At various time-points, samples are collected from the receiver-chamber for analysis for the rate of absorption as measured by the apparent permeability coefficient (Papp) across the monolayer.
The Papp value reflects a combination of the test article permeability through both transcellular (through cell membranes) and the paracellular (across the tight junctions between the cells) pathways. The relative contribution of these pathways depends upon the pKa, partition coefficient (log D), molecular radius, and charge of the test article at a given pH. Papp values can then be used to rank-order compounds for their permeability through Caco-2 monolayers.
Absorption was determined at pH 7.4 across cell monolayers in the apical-to-basolateral direction. Caco-2 cells used to estimate Papp values were grown for 26 days on Transwell inserts in 12-well plates. Monolayer integrity was verified before and after the absorption assay by the methods of transepithelial electrical resistance (Ohm-cm^2) and Lucifer Yellow.
On the day of the assay, the reference standards were diluted in Hank's balanced salt solution (HBSS), pH 7.4 to a final concentration of 50 μM. […] Dihydrotetrabenazine isomer samples were prepared at a concentration of 50 mM in DMSO. Each stock solution was further diluted in HBSS buffer (pH 7.4) to a final working concentration of 50 μM
The Caco-2 cell suspensions were prepared as follows. […] Once the cell density and viability were determined, Caco-2 cells were diluted in culture medium to a final working concentration of 2.0×10^5 cells/ml. The Caco-2 culture medium contained Dulbecco's Modified Eagle Medium, 10% fetal bovine serum, 100 μM non-essential amino acids, 100 U/ml penicillin and 100 μg/ml streptomycin.
Costar polycarbonate membranes (0.4 μm pore size) were pre-equilibrated with Caco-2 culture medium for 1 hour in a 37° C. water-jacketed incubator with 5% CO2. The content of the apical chamber was removed and replaced with 500 μl of Caco-2 cell suspension (200 000 cells/ml). Cells were further maintained in culture for 26 days in a 37° C. water-jacketed incubator with 5% CO2.
Prior to the assay, all monolayers were washed twice with HBSS and their transepithelial electrical resistance (TEER) was measured with a Millicell-ERS meter. TEER values obtained in the absence of cells were subtracted as background signal. Only monolayer with TEER values over 150 Ohm-cm^2 were used for the absorption assay experiment.
All absorption experiments were conducted in triplicate at pH 7.4. The rate of absorption of each reference standard and dihydrotetrabenazine test article was assessed in the apical-to-basolateral direction. Aliquots (100 μl) of each working solution (reference standards and test articles at 50 μM) were set aside at the beginning of the assay for the determination of the initial concentration (Co).
Absorption experiments were initiated by replacing the content of the donor chamber with 500 μl of Hanks Balanced Salt Solution containing test articles or reference compounds. Cells were returned to the CO2 incubator for the absorption assay. Samples of 100 μl were collected from the receiver and donor chambers after 1 hour and were used to determine the percentage of recovery.

[4] = target: T2, Monoamine Oxidase MAO-A (Homo sapiens, UniProt P21397); test: Monoamine Oxidase MAO-A inhibition; assay type: biochemical; conditions: for inhibition at 10 µM: read-out: Percentage Inhibition of Enzyme Activity, MAO-A
T2 sequence (P21397 1-527): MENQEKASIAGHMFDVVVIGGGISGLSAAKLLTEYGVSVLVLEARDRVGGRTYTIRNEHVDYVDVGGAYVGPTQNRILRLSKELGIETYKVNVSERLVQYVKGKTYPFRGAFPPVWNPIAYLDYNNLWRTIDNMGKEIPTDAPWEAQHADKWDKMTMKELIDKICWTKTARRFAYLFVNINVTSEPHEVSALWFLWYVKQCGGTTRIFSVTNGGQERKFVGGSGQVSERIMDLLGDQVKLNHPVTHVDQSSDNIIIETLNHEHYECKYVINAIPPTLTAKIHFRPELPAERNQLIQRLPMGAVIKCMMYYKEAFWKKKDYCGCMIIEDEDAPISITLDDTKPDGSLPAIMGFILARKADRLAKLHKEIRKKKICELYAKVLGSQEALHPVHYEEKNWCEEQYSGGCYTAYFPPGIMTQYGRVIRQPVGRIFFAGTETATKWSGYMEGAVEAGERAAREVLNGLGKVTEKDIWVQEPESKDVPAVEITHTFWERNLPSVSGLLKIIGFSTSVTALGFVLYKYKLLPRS
Protocol: Isomers B and C were tested for their ability to inhibit enzymes involved in the processing of monoamines in the CNS, namely Catechol O-Methyl Transferase (COMT), Monoamine Oxidase A and Monoamine Oxidase B. The assay methods used are described below and the results are set out in Table 7. (a) Catechol O-Methyl Transferase (COMT) Inhibition • Source: […] None • Incubation time: 60 minutes @ 37° C. • Incubation buffer: 100 mM potassium phosphate, 10 mM MgCl2, 3 mM DTT containing 12 units/ml adenosine deaminase, pH 7.4 • Quantitation method: […]

[5] = target: T3, Dopamine D1 Receptor (Homo sapiens, UniProt P21728); test: Dopamine D1 receptor radioligand binding; conditions: 10 μM; 1.4 nM [3H] SCH-23390
T3 construct: expressed in transfected cells; host or cells: CHO cells
Protocol: as §1

[6] = target: T4, Dopamine D3 Receptor (Homo sapiens, UniProt P35462); test: Dopamine D3 receptor radioligand binding; conditions: 10 μM; 0.7 nM [3H] Spiperone
T4 construct: expressed in transfected cells; host or cells: CHO cells
Protocol: as §1

[7] = test system: Human HEK-293 cells; test: Cellular assay: inhibition of [3H] serotonin uptake by human embryonic kidney cells; assay type: cell-based; conditions: for inhibition at 10 µM: Homo sapiens, HEK293
Protocol: The ability of isomers B and C to inhibit uptake of serotonin (5-hydroxytryptamine) by human embryonic kidney cells was measured using the following assay conditions: […]

T3 sequence (P21728 whole entry): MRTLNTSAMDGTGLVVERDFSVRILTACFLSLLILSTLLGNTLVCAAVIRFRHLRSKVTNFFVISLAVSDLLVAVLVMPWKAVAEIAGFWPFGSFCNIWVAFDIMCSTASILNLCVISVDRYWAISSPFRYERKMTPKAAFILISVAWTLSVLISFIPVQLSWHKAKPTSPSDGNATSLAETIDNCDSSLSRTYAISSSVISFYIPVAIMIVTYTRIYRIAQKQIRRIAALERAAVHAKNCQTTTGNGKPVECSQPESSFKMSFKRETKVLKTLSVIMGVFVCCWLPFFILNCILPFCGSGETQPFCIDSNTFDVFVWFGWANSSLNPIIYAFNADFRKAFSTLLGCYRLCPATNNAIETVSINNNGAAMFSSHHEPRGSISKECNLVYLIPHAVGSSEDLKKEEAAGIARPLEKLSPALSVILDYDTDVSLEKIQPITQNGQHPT
T4 sequence (P35462 whole entry): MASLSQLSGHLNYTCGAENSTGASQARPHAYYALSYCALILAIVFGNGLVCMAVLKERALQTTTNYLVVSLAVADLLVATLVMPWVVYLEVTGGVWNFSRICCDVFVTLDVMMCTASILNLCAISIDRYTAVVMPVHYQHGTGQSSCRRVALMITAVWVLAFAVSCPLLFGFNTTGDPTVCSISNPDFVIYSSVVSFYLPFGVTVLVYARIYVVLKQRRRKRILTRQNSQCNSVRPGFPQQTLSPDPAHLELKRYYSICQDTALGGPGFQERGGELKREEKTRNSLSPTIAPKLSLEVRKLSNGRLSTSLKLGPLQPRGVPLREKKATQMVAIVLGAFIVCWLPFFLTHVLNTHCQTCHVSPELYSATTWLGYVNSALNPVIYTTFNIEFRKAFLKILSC

Row | SMILES | affinity for VMAT1 (in words) [1] | IC50 [1] [µM] | Percentage Inhibition of Specific Binding, I2 Receptor [2] [%] | Papp A→B at 1 h, 50 μM [3] [×10⁻⁶ cm/s] | recovery at 1 h, 50 μM [3] [%] | inhibitory activity against monoamine oxidase isoform A (in words) [4] | inhibition at 10 µM [4] [%] | Percentage Inhibition of Specific Binding, D1 Receptor [5] [%] | Percentage Inhibition of Specific Binding, D3 Receptor [6] [%] | mode of action on serotonin uptake (in words) [7] | inhibition at 10 µM [7] [%]
1 | COc1cc2c(cc1OC)[C@H]1C[C@@H](O)[C@@H](CC(C)C)CN1CC2 (single isomer, unassigned) [Isomer C, 3,11b-cis-dihydrotetrabenazine] | low affinity for VMAT-1 | > 10 | 0 | 21.1 | 102 ± 12.4 | no inhibitory activity | 3 | 6 | 9 | antagonist | 86
2 | COc1cc2c(cc1OC)[C@H]1C[C@H](O)[C@@H](CC(C)C)CN1CC2 (single isomer, unassigned) [Isomer B, 3,11b-cis-dihydrotetrabenazine] | low affinity for VMAT-1 | > 10 | 8 | – | 90.1 ± 6.5 | no inhibitory activity | 3 | 1 | 7 | antagonist | 56
